According to ChEMBL document CHEMBL3769371, “1-[(2E)-3-Phenylprop-2-enoyl]-1H-benzimidazoles as anticancer agents: synthesis, crystal structure analysis and binding studies of the most potent anticancer molecule with serum albumin” (Medchemcomm, 2015):

How the values were obtained:
[1] = Antiproliferative activity against human IGROV1 cells at 10'5 M; type: functional, IGROV-1
NCI-H226 = test: Cytotoxicity against human NCI-H226 cells after 48 hrs by SRB assay; type: functional; details: NCI-H226, 48 h
[2] = Cytotoxicity against human HOP92 cells assessed as cell growth at 10^-5 M after 48 hrs by SRB assay; type: functional; details: HOP-92, 48 h, read-out: Activity
[3] = Cytotoxicity against human RXF393 cells assessed as cell growth at 10^-5 M after 48 hrs by SRB assay; type: functional; details: RXF 393, 48 h, read-out: Activity
SK-MEL-5 [4] = test: Cytotoxicity against human SK-MEL-5 cells after 48 hrs by SRB assay; type: functional; details: SK-MEL-5, 48 h
[5] = Cytotoxicity against human HCT15 cells after 48 hrs by SRB assay; type: functional; details: HCT-15, 48 h
Albumin [6] = target: T1, Albumin (Homo sapiens, UniProt P02768); test: Binding affinity to human serum albumin at 0.25 to 2 uM at 303 K by fluorescence microscopic analysis in the presence of ibuprofen; type: ADME; details: isolated protein
[7] = Cytotoxicity against human OVCAR5 cells after 48 hrs by SRB assay; type: functional; details: OVCAR-5, 48 h, read-out: LC50 (the source's name)
MDA-MB-231 [8] = test: Cytotoxicity against human MDA-MB-231 cells after 48 hrs by SRB assay; type: functional; details: MDA-MB-231, 48 h
SK-MEL-2 = test: Cytotoxicity against human SK-MEL-2 cells assessed as cell growth at 10^-5 M after 48 hrs by SRB assay; type: functional; details: SK-MEL-2, 48 h, read-out: Activity
[9] = Cytotoxicity against human HCC2998 cells assessed as cell growth at 10^-5 M after 48 hrs by SRB assay; type: functional; details: HCC 2998, 48 h, read-out: Activity
786-0 = test: Cytotoxicity against human 786-0 cells assessed as cell growth at 10^-5 M after 48 hrs by SRB assay; type: functional; details: 786-0, 48 h, read-out: Activity
T47D [10] = test: Cytotoxicity against human T47D cells assessed as cell growth at 10^-5 M after 48 hrs by SRB assay; type: functional; details: read-out: Activity
[11] = Cytotoxicity against human HL-60(TB) cells assessed as cell growth at 10^-5 M after 48 hrs by SRB assay; type: functional; details: HL-60, 48 h, read-out: Activity
[12] = Cytotoxicity against human TK10 cells assessed as cell growth at 10^-5 M after 48 hrs by SRB assay; type: functional; details: TK-10, 48 h, read-out: Activity
[13] = Cytotoxicity against human HCC2998 cells after 48 hrs by SRB assay; type: functional; details: HCC 2998, 48 h
[14] = Cytotoxicity against human Caki1 cells after 48 hrs by SRB assay; type: functional; details: CAKI-1, 48 h
ACHN [15] = test: Cytotoxicity against human ACHN cells assessed as cell growth at 10^-5 M after 48 hrs by SRB assay; type: functional; details: read-out: Activity
[16] = Cytotoxicity against human SNB75 cells assessed as cell growth at 10^-5 M after 48 hrs by SRB assay; type: functional; details: SNB-75, 48 h, read-out: Activity
[17] = Cytotoxicity against human HCT116 cells after 48 hrs by SRB assay; type: functional; details: HCT-116, 48 h
Albumin [18] = target: T1, Albumin; test: Binding affinity to human serum albumin at 0.25 to 2 uM at 303 K by fluorescence microscopic analysis in the presence of phenylbutazone; type: ADME; details: isolated protein
ACHN [19] = test: Cytotoxicity against human ACHN cells after 48 hrs by SRB assay; type: functional
[20] = Cytotoxicity against human DU145 cells after 48 hrs by SRB assay; type: functional; details: DU-145, 48 h
KM12 = test: Cytotoxicity against human KM12 cells assessed as cell growth at 10^-5 M after 48 hrs by SRB assay; type: functional; details: KM12, 48 h, read-out: Activity
SK-MEL-5 [21] = test: Cytotoxicity against human SK-MEL-5 cells assessed as cell growth at 10^-5 M after 48 hrs by SRB assay; type: functional; details: SK-MEL-5, 48 h, read-out: Activity
NCI-H522 = test: Cytotoxicity against human NCI-H522 cells assessed as cell growth at 10^-5 M after 48 hrs by SRB assay; type: functional; details: NCI-H522, 48 h, read-out: Activity
T47D [22] = test: Cytotoxicity against human T47D cells after 48 hrs by SRB assay; type: functional
HT-29 = test: Cytotoxicity against human HT-29 cells assessed as cell growth at 10^-5 M after 48 hrs by SRB assay; type: functional; details: HT-29, 48 h, read-out: Activity
Albumin [23] = target: T1, Albumin; test: Binding affinity to human serum albumin at 0.25 uM at 303 K by fluorescence microscopic analysis in the presence of Zn2+; type: ADME; details: isolated protein
[24] = Cytotoxicity against human DU145 cells assessed as cell growth at 10^-5 M after 48 hrs by SRB assay; type: functional; details: DU-145, 48 h, read-out: Activity
SN12C = test: Cytotoxicity against human SN12C cells after 48 hrs by SRB assay; type: functional
MDA-MB-231 [25] = test: Cytotoxicity against human MDA-MB-231 cells assessed as cell growth at 10^-5 M after 48 hrs by SRB assay; type: functional; details: MDA-MB-231, 48 h, read-out: Activity
Albumin [26] = target: T1, Albumin; test: Binding affinity to human serum albumin at 0.25 uM at 303 K by fluorescence microscopic analysis in the presence of Co2+; type: ADME; details: isolated protein
NCI-H460 = test: Cytotoxicity against human NCI-H460 cells assessed as cell growth at 10^-5 M after 48 hrs by SRB assay; type: functional; details: NCI-H460, 48 h, read-out: Activity
[27] = Cytotoxicity against human UACC62 cells assessed as cell growth at 10^-5 M after 48 hrs by SRB assay; type: functional; details: UACC-62, 48 h, read-out: Activity
[28] = Cytotoxicity against human SF268 cells assessed as cell growth at 10^-5 M after 48 hrs by SRB assay; type: functional; details: SF-268, 48 h, read-out: Activity
A549 = test: Cytotoxicity against human A549 cells after 48 hrs by SRB assay; type: functional; details: A549, 48 h
[29] = Cytotoxicity against human TK10 cells after 48 hrs by SRB assay; type: functional; details: TK-10, 48 h
[30] = read-out: LC50 (the source's name)

T1 sequence (P02768 whole entry): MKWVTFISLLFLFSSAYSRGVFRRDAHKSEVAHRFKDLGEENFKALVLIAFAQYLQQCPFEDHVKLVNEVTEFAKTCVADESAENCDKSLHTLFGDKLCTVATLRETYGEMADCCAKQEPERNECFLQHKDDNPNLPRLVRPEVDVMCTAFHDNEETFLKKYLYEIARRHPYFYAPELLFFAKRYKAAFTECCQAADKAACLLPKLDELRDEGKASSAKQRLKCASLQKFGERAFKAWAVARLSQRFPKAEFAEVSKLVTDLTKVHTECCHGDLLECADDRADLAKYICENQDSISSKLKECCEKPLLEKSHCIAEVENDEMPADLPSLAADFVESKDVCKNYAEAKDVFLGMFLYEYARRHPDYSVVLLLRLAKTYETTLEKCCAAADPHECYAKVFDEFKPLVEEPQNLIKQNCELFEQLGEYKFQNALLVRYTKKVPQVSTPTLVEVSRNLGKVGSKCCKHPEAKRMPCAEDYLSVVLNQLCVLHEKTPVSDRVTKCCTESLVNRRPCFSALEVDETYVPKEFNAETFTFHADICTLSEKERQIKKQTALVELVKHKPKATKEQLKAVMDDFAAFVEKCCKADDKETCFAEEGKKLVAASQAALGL

Which “growth inhibition (GI)” value [1] does the source give for `O=C(/C=C/c1ccccc1)n1c(-c2ccc(Cl)cc2)nc2ccccc21` here?
Its value is 89.62%.

And the GI50 (NCI-H226)?
Its GI50 is 1.46 µM.

And the TGI (NCI-H226)?
Its TGI is 3.82 µM.

And the CC50 (NCI-H226; [30])?
The CC50 was 10 µM.

And the growth at 10 µM [2]?
The growth at 10 µM was -39.4%.

What about the growth at 10 µM [3] of the same compound?
The growth at 10 µM was -65.2%.

And the GI50 (SK-MEL-5 [4])?
The GI50 was 1.49 µM.

What about the TGI (SK-MEL-5 [4]) of the same compound?
Its TGI is 3.22 µM.

And the CC50 (SK-MEL-5 [4]; [30])?
Its CC50 is 6.92 µM.

And the GI50 [5]?
The GI50 was 1.21 µM.

And the TGI [5]?
The TGI was 2.88 µM.

And the CC50 [5, 30]?
Its CC50 is 6.9 µM.

What about the K (Albumin [6]) of the same compound?
The K was 5.63 ×10³ /M.

What about the CC50 [7] of the same compound?
The CC50 was 49.7 µM.

And the GI50 (MDA-MB-231 [8])?
Its GI50 is 1.88 µM.

What about the TGI (MDA-MB-231 [8]) of the same compound?
The TGI was 5.18 µM.

And the CC50 (MDA-MB-231 [8]; [30])?
Its CC50 is 25.4 µM.

And the growth at 10 µM (SK-MEL-2)?
Its growth at 10 µM is -36%.

What about the growth at 10 µM [9] of the same compound?
Its growth at 10 µM is 5.08%.

What about the growth at 10 µM (786-0) of the same compound?
Its growth at 10 µM is -17.6%.

What about the growth at 10 µM (T47D [10]) of the same compound?
Its growth at 10 µM is -4.25%.

What about the growth at 10 µM [11] of the same compound?
Its growth at 10 µM is -3.97%.

What about the growth at 10 µM [12] of the same compound?
The growth at 10 µM was 18.6%.

And the GI50 [13]?
The GI50 was 1.41 µM.

And the TGI [13]?
The TGI was 2.78 µM.

What about the CC50 [13, 30] of the same compound?
Its CC50 is 5.49 µM.

And the GI50 [14]?
Its GI50 is 1.18 µM.

And the TGI [14]?
Its TGI is 10 µM.

What about the CC50 [14, 30] of the same compound?
Its CC50 is 31.7 µM.

And the growth at 10 µM (ACHN [15])?
Its growth at 10 µM is -49.9%.

What about the growth at 10 µM [16] of the same compound?
Its growth at 10 µM is 18.1%.

And the GI50 [17]?
Its GI50 is 1.8 µM.

And the TGI [17]?
The TGI was 3.45 µM.

What about the CC50 [17, 30] of the same compound?
The CC50 was 6.61 µM.

What about the K (Albumin [18]) of the same compound?
The K was 3.5 ×10³ /M.

What about the GI50 (ACHN [19]) of the same compound?
Its GI50 is 1.17 µM.

And the TGI (ACHN [19])?
Its TGI is 2.56 µM.

And the CC50 (ACHN [19]; [30])?
Its CC50 is 5.62 µM.

And the GI50 [20]?
Its GI50 is 1.8 µM.

And the TGI [20]?
The TGI was 4.93 µM.

And the CC50 [20, 30]?
Its CC50 is 17 µM.

And the growth at 10 µM (KM12)?
Its growth at 10 µM is -62.9%.

And the growth at 10 µM (SK-MEL-5 [21])?
Its growth at 10 µM is -70.6%.

And the growth at 10 µM (NCI-H522)?
Its growth at 10 µM is -72.4%.

And the GI50 (T47D [22])?
Its GI50 is 1.73 µM.

And the TGI (T47D [22])?
The TGI was 7.68 µM.

What about the CC50 (T47D [22]; [30]) of the same compound?
The CC50 was 57.5 µM.

What about the growth at 10 µM (HT-29) of the same compound?
Its growth at 10 µM is -40.6%.

What about the K (Albumin [23]) of the same compound?
The K was 2.26 ×10³ /mol.

And the growth at 10 µM [24]?
Its growth at 10 µM is 11.1%.

And the GI50 (SN12C)?
Its GI50 is 1.39 µM.

And the TGI (SN12C)?
Its TGI is 2.76 µM.

And the CC50 (SN12C; [30])?
The CC50 was 5.46 µM.

What about the growth at 10 µM (MDA-MB-231 [25]) of the same compound?
The growth at 10 µM was -26.5%.

And the K (Albumin [26])?
The K was 4.09 ×10³ /mol.

What about the growth at 10 µM (NCI-H460) of the same compound?
The growth at 10 µM was 0.54%.

And the growth at 10 µM [27]?
Its growth at 10 µM is -84.7%.

And the growth at 10 µM [28]?
The growth at 10 µM was -11.8%.

And the GI50 (A549)?
The GI50 was 0.38 µM.

What about the TGI (A549) of the same compound?
The TGI was 1.88 µM.

And the CC50 (A549; [30])?
Its CC50 is greater than 100 µM.

And the GI50 [29]?
Its GI50 is 2.35 µM.

And the TGI [29]?
The TGI was 7.93 µM.

And the CC50 [29, 30]?
The CC50 was 28 µM.
